From publication PMC10488051, “Screening, Synthesis and Biochemical Characterization of SARS-CoV-2 Protease Inhibitors” (International Journal of Molecular Sciences, 2023) come the findings set out here.

This assay concerns the target mutant PL^proC111S (Severe acute respiratory syndrome coronavirus 2, UniProt P0DTD1, C1674S). The class given is binding, SARS-CoV-2.

Consider `Nc1ccccc1SSc1ccccc1N` [Compound 32], for which the “Thermal effect (Tm) on mutant PL^proC111S” value is “but not the mutant PL^proC111S”.
